What was measured:
[1] = target: T1, 5-HT1A serotonin receptor (Rattus norvegicus, UniProt P19327); assay: displacement of [^3 H] 8-OHDPAT (dipropylaminotetralin) from the 5-HT1A serotonin receptor (Hall et al., J. Neurochem. 44, 1685 (1985)); settings: read-out: 5-HT1A Binding (IC50)
T1 construct: following the procedure of Hall et al., J. Neurochem; 44, 1685 (1985); from tissue
T1 sequence (P19327 1-422): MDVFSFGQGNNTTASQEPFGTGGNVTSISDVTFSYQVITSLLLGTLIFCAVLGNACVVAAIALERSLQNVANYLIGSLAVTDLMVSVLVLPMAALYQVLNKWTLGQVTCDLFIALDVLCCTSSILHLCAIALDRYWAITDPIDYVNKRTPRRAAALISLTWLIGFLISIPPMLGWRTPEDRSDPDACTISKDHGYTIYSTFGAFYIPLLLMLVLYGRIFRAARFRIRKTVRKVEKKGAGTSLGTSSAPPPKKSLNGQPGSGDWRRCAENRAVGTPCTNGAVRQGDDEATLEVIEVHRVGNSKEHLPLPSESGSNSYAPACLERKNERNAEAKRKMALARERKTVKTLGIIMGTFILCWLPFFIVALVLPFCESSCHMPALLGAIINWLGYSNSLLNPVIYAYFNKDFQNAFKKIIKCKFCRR
Protocol: Representative compounds of the present invention were evaluated and determined to have high affinity for the serotonin 5-HT1A receptor by testing the compound's ability to displace [^3 H] 8-OHDPAT (dipropylaminotetralin) from the 5-HT1A serotonin receptor following the procedure of Hall et al., J. Neurochem. 44, 1685 (1985). […] The anxiolytic activity of buspirone is believed to be, at least partially, due to its 5-HT1A receptor affinity (Vander Maclen et al., Eur. J. Pharmacol. 1986,129 (1-2)[…]).

[2] = tested on: 5-HT1A serotonin receptor subtype; settings: buspirone as standard for anxiolytic activity; cited from earlier work

Structure (SMILES): COc1ccsc1C1(O)CCN(C[C@H](Cc2ccccc2)NC(=O)OC(C)(C)C)CC1 [Example 1, (S)-{1-Benzyl-2-[4-hydroxy-4-(3-methoxy-thiophen-2-yl)-piperidin-1-yl]-ethyl}-carbamic acid tert-butyl ester]
- IC50 [1]: 80 nM

Structure (SMILES): COc1ccsc1C1=CCN(C[C@H](Cc2ccccc2)NC(=O)OC(C)(C)C)CC1 [Example 2, (S)-{1-Benzyl-2-[4-(3-methoxy-thiophen-2-yl)-3,6-dihydro-2H-pyridin-1-yl]-ethyl}-carbamic acid tert-butyl ester]
- IC50 [1]: 1.6 nM

Structure (SMILES): COc1ccsc1C1=CCN(C[C@H](Cc2ccccc2)NC(=O)C2CCCCC2)CC1 [Example 3, (S)-cyclohexanecarboxylic acid {1-benzyl-2-[4-(3-methoxy-thiophen-2-yl)-3,6-dihydro-2H-pyridin-1-yl]-ethyl}-amide]
- IC50 [1]: 0.78 nM

Structure (SMILES): COc1ccsc1C1CCN(C[C@H](Cc2ccccc2)NC(=O)C2CCCCC2)CC1 [Example 4, Cyclohexanecarboxylic acid {(1S)-1-benzyl-2-[4-(3-methoxy-thiophen-2-yl)-piperidin-1-yl]-ethyl}-amide]
- IC50 [1]: 1.1 nM

Structure (SMILES): O=C1CC2(CCCC2)CC(=O)N1CCCCN1CCN(c2ncccn2)CC1 [buspirone]
- 5-HT1A receptor affinity (in words) [2]: potent affinity

From patent US6110943A, “N-substituted (thiophen-2-yl)-piperidines and tetrahydropyridines as serotonergic agents” (American Home Products Corporation, priority 1999, dated 2000)
